Data: patent US20230042917A1, “DIRECT REPROGRAMMING OF SOMATIC CELLS INTO MYOGENIC CELLS” (THE GENERAL HOSPITAL CORPORATION, priority 2016, published 2023)

Test system: MEFs expressing MyoD
Assay: Reprogramming of MyoD-expressing MEFs with small molecules (myotubes, proliferative cells, contraction, Pax7 staining)
Format: cell-based, mouse
Details: for formation of MyHC+, polynucleated myotubes / generation of proliferative cells: Knockout DMEM, 10% KOSR, 10% FBS, 10 ng/ml bFGF
Description: A doxycycline (dox) inducible lentiviral system (tetOP-MyoD) was engineered, allowing for inducible and reversible activation of MyoD in target cells. […] The myogenic identity of converted cells was confirmed by immunofluorescence staining for the differentiation marker myosin heavy chain (MyHC), which was absent in uninfected MEFs (FIG. 14C).
MEFs undergoing MyoD-induced lineage conversion were exposed to various small molecules and cytokines in an attempt to induce reprogramming into a proliferative, myogenic progenitor-like cell state in addition to mature myotubes (FIG. 14A, bottom row). Specifically, compounds including the GSK3β inhibitor CHIR99021 (abbreviated as “G”) and the TGF-01 receptor inhibitor RepSox (abbreviated as “R”) were used. In addition, the effect of the cyclic AMP agonist Forskolin (abbreviated as “F”), which reportedly facilitates the transient expansion of satellite cells in vitro was tested. These compounds were added individually or combinatorially to MEFs expressing MyoD and cultured in Knockout DMEM media containing 10% KOSR and 10% FBS and supplemented with 10 ng/ml bFGF, which promotes satellite cell and myoblast growth. […] Cultures treated with these small molecules typically assembled into three-dimensional colonies with emanating myotubes and numerous small, round cells that seem to be muscle progenitors (FIG. 14B and live video monitoring was used to monitor the muscle progenitors). KOSR media contains ascorbic acid, which enhances reprogramming into iPSCs by modulating epigenetic regulators. To determine whether ascorbic acid is required for the induction of these proliferative, putative progenitor cells using our culture system, MEFs expressing MyoD were exposed to F/R in the presence or absence of ascorbic acid using DMEM media containing FBS and bFGF but lacking KOSR.
To assess the temporal requirement for exogenous MyoD expression and small molecules during the establishment and maintenance of our progenitor-like cell population, infected MEFs were treated with dox for 0, 2, 4, 6, 8 or 10 days in the presence of F/R, followed by 5 days of dox withdrawal before scoring for colonies that proliferated and contracted (FIG. 14G). […] By contrast, continuous exposure of cultures to F/R was required to maintain these cultures upon passaging (FIG. 14G and data not shown). Thus, without being bound by any particular theory, small molecules and growth factors collaborate with transient MyoD expression to endow MEFs with a myogenic progenitor-like state. These cells are provisionally termed “induced myogenic progenitor cells” (iMPCs).
Mouse embryonic fibroblasts (MEFs), Tail-tip fibroblasts (TTFs) and the commercial myoblast cell line C2C12 (ATCC®CRL-1772™) were cultured in “MEF medium” containing DMEM (ThermoFisher Scientific, catalog number 10313-021), supplemented with 10% Fetal Bovine Serum (FBS) (HyClone catalog number SH30396.03), 1% GlutaMAX (ThermoFisher Scientific, catalog number 35050061), 1% non-essential amino acids (ThermoFisher Scientific, catalog number 11140050), 1% penicillin-streptomycin (ThermoFisher Scientific, catalog number 15140122), 0.5% β-mercaptoethanol (ThermoFisher Scientific, catalog number 21985-023). Freshly isolated satellite cells and derivative myoblasts were cultured using a 1:1 ratio of DMEM and F-10 (1×) Nutrient mix (ThermoFisher Scientific, catalog number 11550-043) supplemented with 10% horse serum (ThermoFisher Scientific, catalog number 16050-122), 20% FBS (HyClone catalog number SH30396.03) and […] basic-FGF (R&D 233-FB). Satellite cells and myoblasts were cultured on plates coated with Matrigel Basement Membrane Matrix (Catalog number 356237, Corning). […]

Row | Compound | Pax7+ cells (immunofluorescence) (MEFs expressing MyoD, in the presence of KOSR or ascorbate) | formation of MyHC+, polynucleated myotubes (MEFs expressing MyoD) | generation of proliferative cells (MEFs expressing MyoD) | generation of proliferative cells and contracting myotubes (MEFs expressing MyoD exposed to F/R, DMEM with FBS and bFGF lacking KOSR) | Pax7+ iMPC formation after withdrawal of SR (MyoD + FR, medium without serum replacement)
1 | Cc1c[nH]c(-c2cnc(NCCNc3ccc(C#N)cn3)nc2-c2ccc(Cl)cc2Cl)n1 [G, CHIR99021] | only in the presence of FR | increased | did not generate any proliferative cells | – | –
2 | Cc1cccc(-c2n[nH]cc2-c2ccc3ncccc3n2)n1 [R, 2-3[(6-methyl-2-pyridinyl)-1H-pyrazol-4-yl]-1,5-napthyridine] | – | increased | did not generate any proliferative cells | – | –
3 | O=C1O[C@H]([C@@H](O)CO)C(O)=C1O [ascorbic acid] | – | – | – | depended on ascorbic acid | partially rescues this phenotype
